What was measured:
[1] = system: CC49-TCO pretargeted LS174T colon carcinoma xenografts; test: Pretargeted blocking assay with [111In]Q (Example 140); type: in vivo, BALB/c mice; details: as listed in Table 6, value of the unlabeled Tz
Experimental: All animal studies were approved by the Danish Animal Welfare Council, ministry of Justice. Five weeks old female nude BALB/c mice (Charles River, Sulzfeld, Germany) were allowed to acclimatize for one week with access to water and chow ad libitum. Human colon cancer cell line (LS174T; obtained from ATCC) was cultured in minimum essential medium (MEM) supplemented with 10% fetal bovine serum, 1% L-Glutamine, 1% Sodium pyruvate, 1% non-essential amino acids, and 1% penicillin-streptomycin at 37° C. and 5% CO2. Cells were harvested by trypsination at a confluence of 70-90% and subcutaneous tumors were established in the left flank of the 6 weeks old animals by inoculation of ˜5×10^6 LS174T cells resuspended in sterile PBS (100 μL) and allowed to grow for 7-10 days. Tumors were measured using a caliper and the volume calculated using the formula volume=½(length×width^2).
The assay was inspired by receptor blocking experiments and based on the pretargeted imaging approach reported by Rossin et al. An ^111In-labeled Tz [^111In]Q was used in pair with TCO-modified CC49, a non-internalizing mAb that targets the tumor-associated glycoprotein 72 (TAG72), as a benchmark model for the in vivo ligation.
The TCO-modification of CC49 was carried out according to Rossin et al. To study the in vivo ligation performance of Tz-derivatives 1a-45a, BALB/c mice bearing LS174T colon carcinoma xenografts were injected intravenously (i.v.) with CC49-TCO 72 h prior to i.v. injection of the unlabeled Tz, followed by administration of [^111In]Q 1 h later. The animals were euthanized after 22 h and an ex vivo biodistribution was carried out to quantify the tumor uptake of [111 In]Q (FIG. 15). The efficiency of the in vivo ligation of the unlabeled Tz can thus be correlated to a reduced uptake of [111 In]Q (FIG. 15). As a control, blocking was performed using the non-radioactive precursor of [^111In]Q, which blocked ≥99% of the [^111In]Q tumor uptake. A group of CC49-TCO pretreated mice were injected exclusively with [^111In]Q (without blocking) and the determined uptake was used as reference value (100%) to normalize the observed changes in tumor uptake in blocking experiments.
All of these probes include H-phenyl-, pyrimidyl-phenyl-, or bis(pyridyl)-Tz-scaffolds with second-order rate constants for the reaction with TCO of >70 M 1 s 1 (1,4-dioxane, 25° C.) or of >39,000 M 1 s 1 (DPBS, 37° C.) (cf. Table 5). Next, potential correlations between the blocking effect, the c log D7.4 and the TPSA, as well as IEDDA reactivity were investigated. […] However, a distinct relationship between c log D7.4 values and the blocking effect was evidently observed when comparing Tz-derivatives with similar IEDDA reactivity (FIG. 16C, 16D). For all Tz-scaffolds a Pearson's correlation coefficient >0.78 was found. […] The blocking effect of non-radiolabeled Tz was determined as the change in tumor uptake of [111 In]Q 22 h p.i. Each Tz was administered 1 h prior to [111 In]Q and the uptake normalized to a group of animals were no blocking was performed (control). Data represent mean from n=3 mice/group. Correlation of blocking effect and c log D7.4 for Tz-derivatives with similar IEDDA reactivity (as shown in FIGS. 16C and D) where data was fitted to exponential growth equation Y=Y0 ekx (dotted line). The statistical analysis of the correlation between tumor uptake and c log D7.4 for the different groups of Tz-derivatives (shown in Table 7) was obtained by Pearson's correlation coefficient (r) which describes the goodness of fit between the blocking effect and c log D7.4. Notes: a Reaction of representative Tz with unsubstituted TCO; “Reaction of representative Tz with TCO-PEG4;” Measured for Tz-scaffold A only; n.d.=not determined.

[2] = In vivo stability of 18F-labeled Tz-derivatives, plasma radio-TLC; details: naïve mice, n=4
Source text: In order to verify that the results from the blocking study can be used to predict the outcome for in vivo PET imaging, 18 Tz-derivatives from the first library were selected. The selection was based on criteria such as, the possibility for ^18F-labeling, structural diversity, lipophilicities and distinct IEDDA reactivities. For this purpose, we decided to use an indirect radiolabeling approach, enabling the combination of different building blocks to rapidly access a series of ^18F-labeled Tz-derivatives. The Cu-catalyzed azide-alkyne [3+2] cycloaddition (CuAAC) appeared to be suitable in this respect, as it allows for fast and efficient radiolabeling under mild reaction conditions. Six precursor Tz-alkynes (I-VI) were prepared and reacted with three ^18F-labeled azides ([^18F]Az1-Az3) to obtain 18 different [^18F]Tz-probes (FIG. 17). Notes to Table 6 showing the results obtained: ^aRCYs were decay-corrected to the starting amount of radioactivity for the respective azide or *RCY was determined starting from ^18F—. ^bMolar activities (Am) differ due to the use of different cyclotrons. ^cRCP was determined by radio-HPLC. ^dIn vivo stability of [^18F]Tz was assessed by determining the fraction (%) of radioactivity corresponding to intact compound after 30 min (n=4) from radio-TLC analysis. n.d.=not determined.
Next, we investigated whether there is a relationship between the in vivo stability of Tz-derivatives and their blocking ability. Fifteen ^18F-labeled tetrazines were studied in naïve mice. Blood was collected after 30 min, and plasma samples were analyzed by radio-TLC for stability assessment (Table 6). […] Consequently, six [^18F]Tz ([^18F]1a, [^18F]3a, [^18F]19a, [^18F]26a, [^18F]44a, and [^18F]45a) were selected for further in vivo studies solely based on the IEDDA-reactivity (second-order rate constants between 72 and 230 M^−1s^−1) and lipophilicity (c log D7.4 between −1.53 and 2.10). These radiolabeled Tz-probes were used to investigate if the results from the blocking assay can be translated to pretargeted PET imaging at tracer doses.

[3] = system: CC49-TCO pretargeted LS174T tumor xenografts; test: Pretargeted PET imaging with six 18F-labeled Tz-derivatives (Example 140); type: in vivo, BALB/c nude mice; details: PET 1 h p.i., n=3-4 per group
Experimental: Mice (n=3-4 per group) were injected i.v. with either CC49-TCO or 0.9% saline (control experiments). After 72 h, ^18F-labeled Tz (5-10 MBq) were administered and the mice were PET/CT-scanned 1 h p.i. A 3D region of interest (ROI) was created on the entire tumor volume, as well as heart and muscle tissue, and the uptake was quantified as percentage of the injected dose per gram (mean % ID/g), tumor-to-blood (T/B) and tumor-to-muscle (T/M) ratios (FIG. 18A-D). FIG. 18 (A) is a schematic illustration of the pretargeting experiment and the research question: Is there a correlation between the blocking effect and the PET imaging contras. (B) Image-derived mean uptake values are presented as percentage of the injected dose per gram (% ID/g) in tumor. (C) Tumor-to-muscle (T/M) ratios (n=4 mice, except for [^18F]3, n=3). Data is represented as mean±S.D. (*p<0.05 and *** p<0.001). For all groups n=4 mice (except [^18F]3a where n=3) (D) Correlation between the blocking effect of the unlabeled Tz-derivatives 1a, 3a, 19a, 26a, 44a, and 45a and the T/M-ratios for the corresponding ^18F-labeled compounds observed by in vivo pretargeted PET imaging. A strong correlation was found (linear regression: R2=0.78, p=0.019, n=6). Data is represented as mean±S.D. The asterisk indicates significant difference (* p<0.05 and *** p<0.001) when compared to control. (E) Representative images of PET scans 1 h p.i. of the radiolabeled Tz ([^18F]1a, [^18F]3a, [^18F]19a, [^18F]26a, [^18F]44a and [^18F]45a) in pretargeted PET imaging studies (T indicates the position of the tumor).
This difference was also observed for the three ^18F-labeled Tz-derivatives showing specific tumor accumulation ([^18F]3a, [^18F]19a and [^18F]45a), but not for the non-accumulating probes [^18F]1a and [^18F]26a (FIG. 18B). Binding to residual mAb in the blood pool is a frequently reported challenge in pretargeted imaging approaches, and has been addressed by the development of clearing agents.

[4] = Second order rate constants from stopped-flow measurements with TCO at 25° C. in ACN (Table 1); type: physicochemical; details: second order rate constants estimated from stopped-flow measurements of the alkyne-Tz building block with TCO at 25° C. in ACN
Experimental: In Table 1, the following letters in brackets defines the following: [a] Radiochemical conversion (RCC) and Radiochemical purity (RCP) were determined by radio-HPLC (n=3); [b] Radiochemical yield (RCY) was decay corrected to the starting amount of radioactivity received from the cyclotron and the isolated product without formulation step (n=3); [c] Second order rate constants estimated from stopped-flow measurements of the alkyne-Tz building block with TCO at 25° C. in CAN; [d] No product formed or could not be isolated.
Reaction kinetics of the Tz-derivatives were determined by pseudo-first order measurements in dioxane at 25.0±0.1° C. or PBS at 27.0±0.1° ° C. in a SX20 stopped flow photometer (Applied Photophysics). The pseudo first order rate constant was determined by linearization of the decay curve followed by linear fitting. The second order rate constant was calculated from the pseudo-first order rate constant.

| Structure (SMILES) | In vivo stability (% intact [^18F]Tz after 30 min) [2] | Blocking effect (%) (of unlabeled Tz) [1] | Tumor accumulation in mice pretreated with CC49-TCO compared to control animals [3] | k2 [4] |
| --- | --- | --- | --- | --- |
| O[C@@H]1[C@@H](O)[C@H](n2cc(-c3ccc(-c4nncnn4)cc3)nn2)O[C@H](C[18F])[C@H]1O [[^18F]19a] | 87% | 76% | significantly increased tumor accumulation | – |
| [18F]c1cccc(-c2nnc(-c3ccccc3)nn2)c1 [[^18F]R] | – | – | – | 30 M⁻¹ s⁻¹ |
| Cc1nnc(-c2ccc([18F])cc2)nn1 [[^18F]Tz1] | – | – | – | 2.25 M⁻¹ s⁻¹ |
| [18F]c1cccc(-c2nncnn2)c1 [[^18F]-9] | – | – | – | 222 M⁻¹ s⁻¹ |
| [18F]c1ccc(-c2nnc(-c3ccccn3)nn2)cc1 [[^18F]T] | – | – | – | 106 M⁻¹ s⁻¹ |
| [18F]c1ccc(-c2nncnn2)cc1 [[^18F]Y] | – | – | – | 159 M⁻¹ s⁻¹ |
| [18F]c1ccc(-c2nnc(-c3ccccn3)nn2)nc1 [[^18F]U] | – | – | – | 206 M⁻¹ s⁻¹ |
| O=C(Nc1ccc(-c2nnc(-c3ccccn3)nn2)nc1)c1ccc(-c2cn(CC[18F])nn2)cc1 [[^18F]25a] | – | 16% | – | – |
| O=C(Nc1ccc(-c2nnc(-c3ccccn3)nn2)nc1)c1ccc(-c2cn([C@@H]3O[C@H](C[18F])[C@@H](O)[C@H](O)[C@H]3O)nn2)cc1 [[^18F]27a] | – | 51% | – | – |
| [18F]c1ccc(-c2nnc(-c3ccccc3)nn2)cc1 [[^18F]E] | – | – | – | 18 M⁻¹ s⁻¹ |
| O[C@@H]1[C@@H](O)[C@H](n2cc(COc3ccc(-c4nncnn4)cc3)nn2)O[C@H](C[18F])[C@H]1O [[^18F]3a] | 76% | 81% | significantly increased tumor accumulation | – |

Further lines, with some results ahead:

| In vivo stability (% intact [^18F]Tz after 30 min) [2] | Structure (SMILES) | Blocking effect (%) (of unlabeled Tz) [1] | Tumor accumulation in mice pretreated with CC49-TCO compared to control animals [3] | k2 [4] |
| --- | --- | --- | --- | --- |
| 26% | Cc1nnc(-c2ccc(OCc3cn(CC[18F])nn3)cc2)nn1 [[^18F]5a] | 10% | – | – |
| 60% | Cc1nnc(-c2ccc(OCc3cn([C@@H]4O[C@H](C[18F])[C@@H](O)[C@H](O)[C@H]4O)nn3)cc2)nn1 [[^18F]7a] | 3% | – | – |
| 10% | O=C(CCc1cn(CC[18F])nn1)Nc1ccc(-c2nnc(-c3ccccn3)nn2)nc1 [[^18F]43a] | 67% | – | – |
| 90% | [18F]CCn1cc(COc2ccc(-c3nncnn3)cc2)nn1 [[^18F]1a] | 9% | no significant difference in tumor uptake | – |
| 43% | O[C@@H]1[C@@H](O)[C@H](n2cc(COc3ccc(-c4nnc(-c5ccccn5)nn4)cc3)nn2)O[C@H](C[18F])[C@H]1O [[^18F]14a] | 24% | – | – |
| 32% | [18F]CCn1cc(-c2ccc(-c3nncnn3)cc2)nn1 [[^18F]17a] | 0% | – | – |
| 10% | [18F]CCn1cc(COc2ccc(-c3nnc(-c4ccccn4)nn3)cc2)nn1 [[^18F]12a] | 0% | – | – |
| 42% | O=C(CCc1cn([C@@H]2O[C@H](C[18F])[C@@H](O)[C@H](O)[C@H]2O)nn1)Nc1ccc(-c2nnc(-c3ccccn3)nn2)nc1 [[^18F]45a] | 99% | significantly increased tumor accumulation | – |
